Source: ChEMBL document CHEMBL5052853, “Isoxazole derivatives targeting tacc3 as anticancer agents” (2021)
Active and inactive are the calls of the source. The calls are words filed in the database; no cut-off is given here.

Columns and labels:
Format in all cases: functional, cell-based
[1] = tested on: JIMT-1; assay: Antiproliferative activity against human JIMT-1 cells after 72 hrs by SRB assay; details: JIMT-1, 72 h
[2] = tested on: RT-112; assay: Antiproliferative activity against human RT-112 cells after 3 days by SRB assay; details: RT-112, 72 h
[3] = tested on: JIMT-1; assay: Induction of DNA damage in human JIMT-1 cells at high concentration assessed as change in p-H2AX levels and measured by Western blot analysis
[4] = tested on: JIMT-1; assay: Induction of apoptosis in human JIMT-1 cells at high concentration assessed as change in cleaved PARP levels and measured by Western blot analysis
[5] = tested on: MCF-12A; assay: Antiproliferative activity against human MCF-12A cells
[6] = tested on: JIMT-1; assay: Induction of apoptosis in human JIMT-1 cells at high concentration assessed as change in cleaved caspase-3 levels and measured by Western blot analysis
[7] = tested on: JIMT-1; assay: Induction of mitotic arrest in human JIMT-1 cells at high concentration assessed as change in p-histone H3 levels and measured by Western blot analysis
[8] = tested on: RT-4; assay: Antiproliferative activity against human RT-4 cells after 3 days by SRB assay; details: RT-4, 72 h

| Structure (SMILES) | IC50 [1] | also measured |
| --- | --- | --- |
| CSc1ccc(-c2cc(Nc3ccnc(N4CCOCC4)n3)on2)cc1 | 30 nM |  |
| COc1ccc(-c2cc(Nc3ccnc(N4CCC(C(=O)O)CC4)n3)on2)cc1 | > 10000 nM |  |
| COc1cccc(-c2cc(Nc3ccnc(N4CCOCC4)n3)on2)c1 | 3440 nM |  |
| CN(C)c1ccc(-c2cc(Nc3ccnc(N4CCOCC4)n3)on2)cc1 | 120 nM |  |
| COc1ccc(-c2cc(Nc3ccnc(N4CCC(NN5CCOCC5)CC4)n3)on2)cc1 | 800 nM |  |
| COc1ccc(-c2cc(Nc3ccnc(N4CC5CCC(C4)O5)n3)on2)cc1 | 3090 nM |  |
| COc1ccc(-c2cc(Nc3ccnc(N4C5CCC4COC5)n3)on2)cc1 | 160 nM |  |
| CCCOc1ccc(-c2cc(Nc3ccnc(N4CCOCC4)n3)on2)cc1 | > 10000 nM |  |
| FC(F)(F)Oc1ccc(-c2cc(Nc3ccnc(N4CCOCC4)n3)on2)cc1 | > 10000 nM |  |
| COc1ccc(-c2cc(Nc3ccnc(N4C5CCC4COC5)n3)on2)cc1F | 53 nM |  |
| FC(F)Oc1ccc(-c2cc(Nc3ccnc(N4CCOCC4)n3)on2)cc1 | 4230 nM |  |
| Clc1ccc(-c2cc(Nc3ccnc(N4CCOCC4)n3)on2)cc1 | > 10000 nM |  |
| COc1ccc(-c2cc(Nc3ccnc(N4CCN(CCO)CC4)n3)on2)cc1 | > 10000 nM |  |
| CCOC(=O)C1CCN(c2nccc(Nc3cc(-c4ccc(OC)cc4)no3)n2)CC1 | > 10000 nM |  |
| CCc1ccc(-c2cc(Nc3ccnc(N4CCOCC4)n3)on2)cc1 | 259 nM |  |
| CC(F)(F)c1ccc(-c2cc(Nc3ccnc(N4CCOCC4)n3)on2)cc1 | > 10000 nM |  |
| Fc1ccc(-c2cc(Nc3ccnc(N4CCOCC4)n3)on2)cc1 | > 10000 nM |  |
| FC(F)(F)c1ccc(-c2cc(Nc3ccnc(N4CCOCC4)n3)on2)cc1 | > 10000 nM |  |
| CC(C)c1ccc(-c2cc(Nc3ccnc(N4CCOCC4)n3)on2)cc1 | 3610 nM |  |
| COc1ccccc1-c1cc(Nc2ccnc(N3CCOCC3)n2)on1 | 8270 nM |  |
| c1ccc(COc2ccc(-c3cc(Nc4ccnc(N5CCOCC5)n4)on3)cc2)cc1 | > 10000 nM |  |
| COc1ccc(-c2cc(Nc3ccnc(N4CCOCC4)n3)on2)cc1F | 13 nM |  |
| COc1ccc(-c2cc(Nc3ccnc(N4CCOCC4)n3)on2)cn1 | 7300 nM |  |
| COc1ccc(-c2cc(Nc3ccnc(N4CCC(C(F)(F)F)CC4)n3)on2)cc1 | 56 nM |  |
| CC(C)CNc1ccnc(NCc2csc(-c3ccccc3)n2)n1 |  | IC50 [2]: 8710 nM; Activity [3]: Active; Activity [4]: Active; IC50 [5]: > 10000 nM; Activity [6]: Active; Activity [7]: Active; IC50 [8]: 7070 nM |
| COc1ccc(-c2cc(Nc3ccnc(N4CCNCC4)n3)on2)cc1 | > 10000 nM |  |

| Structure (SMILES) | IC50 [1] | also measured |
| --- | --- | --- |
| COc1ccc(-c2cc(Nc3nc(N4CCC(F)CC4)ncc3F)on2)cc1 | 540 nM |  |
| COc1ccc(-c2cc(Nc3ccnc(N4CCC(F)CC4)n3)on2)cc1 | 130 nM |  |
| COc1ccc(-c2cc(Nc3ccnc(N4C[C@@H]5C[C@H]4CO5)n3)on2)cc1 | 2020 nM |  |
| COc1ccc(-c2cc(Nc3ccnc(N4C[C@@H](C)O[C@@H](C)C4)n3)on2)cc1 | 230 nM |  |
| COc1ccc(-c2cc(Nc3ccnc(N4CCCC4)n3)on2)cc1F | 49 nM |  |
| COc1ccc(-c2cc(Nc3ccnc(N4CCC(C)CC4)n3)on2)cc1 | 204 nM |  |
| COc1ccc(-c2cc(Nc3ccnc(N4CCOCC4)n3)on2)cc1Cl | 480 nM |  |
| CCN(Cc1ccncc1)Cc1c(O)ccc2c(-c3cc4ccccc4oc3=O)cc(=O)oc12 |  | IC50 [2]: 1200 nM; Activity [3]: Active; Activity [4]: Active; IC50 [5]: > 10000 nM; Activity [6]: Active; Activity [7]: Active; IC50 [8]: 5250 nM |
| COc1ccc(-c2cc(Nc3ccnc(N4CCSCC4)n3)on2)cc1 | 113 nM |  |
| CN(C)c1ccc(-c2cc(Nc3ccnc(N4CCC(F)CC4)n3)on2)cc1 | 157 nM |  |
| CCOc1ccc(-c2cc(Nc3ccnc(N4CCOCC4)n3)on2)cc1 | 810 nM |  |
| COc1ccc(-c2cc(Nc3ccnc(N4CCC(F)(F)CC4)n3)on2)cc1 | 370 nM |  |
| COc1ccc(-c2cc(Nc3cc(C)nc(N4CCC(F)CC4)n3)on2)cc1 | 1000 nM |  |
| Oc1ccc(-c2cc(Nc3ccnc(N4CCOCC4)n3)on2)cc1 | > 10000 nM |  |
| COc1ccc(-c2cc(N(C)c3ccnc(N4CCOCC4)n3)on2)cc1 | 160 nM |  |
| COc1ccc(-c2cc(Nc3ccnc(N4CCC(CCO)CC4)n3)on2)cc1 | 3970 nM |  |
| COc1ccc(-c2cc(Nc3ccnc(N4CCC(F)CC4)n3)on2)cc1F | 145 nM |  |
| c1ccc(-c2cc(Nc3ccnc(N4CCOCC4)n3)on2)cc1 | > 10000 nM |  |
| COc1ccc(-c2cc(Nc3ccnc(N4CCCC4)n3)on2)cc1 | 105 nM |  |
| c1cc(Nc2cc(-c3ccc4c(c3)OCO4)no2)nc(N2CCOCC2)n1 | 870 nM |  |
| Cc1ccc(-c2cc(Nc3ccnc(N4CCOCC4)n3)on2)cc1 | 640 nM |  |
| COc1ccc(-c2cc(Nc3ccnc(N4CCOCC4)n3)on2)cc1OC | 730 nM |  |
| COc1ccc(-c2cc(Nc3ccnc(N4CCS(=O)(=O)CC4)n3)on2)cc1 | > 10000 nM |  |
| COc1ccc(-c2cc(Nc3ccnc(N4CCCCC4)n3)on2)cc1 | 116 nM |  |
| COc1ccc(-c2cc(Nc3ccnc(N4CCN(C)CC4)n3)on2)cc1 | 1560 nM |  |
| COc1ccc(-c2cc(Nc3ccnc(N4C[C@H]5C[C@@H]4CO5)n3)on2)cc1 | 480 nM |  |
